Where a SMILES comes first, the peptide text is derived from it. [ ]: non-standard residue; d: D form. The star is where a group is joined. Dolaproine = CO[C@@H]([C@@H]1CCCN1)[C@@H](C)C(=O)O; Dil = CC[C@H](C)[C@H](NC)[C@@H](CC(=O)O)OC; X1 = C[C@@H](N*)[C@@H](O)c1ccccc1; NMeV = CN[C@H](C(=O)O)C(C)C
Tests used:
[1] = tested on: HCT116 colorectal cancer flank tumors; assay: Efficacy of Compound 5 in a HCT116 colorectal xenograft model (Example N); type: in vivo, nude mice; details: 1, 5 and 10 mg/kg IP QDx4
Description: Mice were administered intraperitoneal (IP) doses of vehicle, 1, 5, or 10 mg/kg Compound 5.

[2] = tested on: HCT116 cells; assay: In vitro cell cycle arrest functional assay (propidium iodide, flow cytometry); type: cell-based; details: Homo sapiens, HCT-116, 24 h incubation, read-out: IC50 of dose responsive accumulation in G2/M
Description: Cell Incubation with MMAE and Compound 2 and Staining with Propidium Iodide
HCT116 cells were seeded in 6-well tissue culture plates at 500,000 cells per well in 2 mL of DMEM and incubated overnight in a 37° C., 5% CO2 incubator. 200 μL of dilutions of MMAE and Compound 2 which were made at 10× concentrations in DMEM+4% DMSO were added to appropriate wells of the 6-well plates and plates were incubated for 24 hours. After exposure of HCT116 cells to either MMAE or Compound 2, cells were harvested for propidium iodide staining and flow cytometry. Media was collected from each well and transferred into conical 15 mL centrifuge tubes to collect nonadherent cells. PBS (1 mL) was added to wash wells and was then transferred to the 15 mL tubes. Tryp-LE (1 mL) was added to each well and plates were incubated for 5 minutes in a 37° C., 5% CO2 incubator until the cells lifted off the well surface. A solution of DMEM+10% fetal bovine serum (1 mL) was added to each well. Wells were triturated and cells transferred to tubes. […] Cell counts and viability for each sample was assessed by trypan blue exclusion on a Bio-Rad TC20 cell counter. […]
An aliquot (1 mL) of each cell suspension was transferred into a deep-well polypropylene plate. […] Propidium iodide-stained cells were analyzed using a BD Acuri flow cytometer.

[3] = Tissue pharmacokinetics of Compound 2 in a mouse model (MMAE in tumor, muscle, bone marrow); type: in vivo, athymic nude mice bearing HCT116 tumors; details: single IP 0.5 mg/kg MMAE or 3 mg/kg Compound 2; 4, 24, 48 h; LCMS
Description: When xenografts reached a minimal volume of 300 mm^3, mice were administered a single intraperitoneal injection of 0.5 mg/kg MMAE or 3 mg/kg Compound 2 prepared in a vehicle of 5% mannitol in citrate. Tumor, quadriceps muscle and bone marrow samples were collected from fed, anesthetized mice at 4, 24 and 48 hours after compound administration. MMAE concentrations in tissues were determined via LCMS.
A 75 μL volume of acetonitrile:formic acid (1000:1, v:v) containing internal standard (MMAE-D8) to the wells of a 96-well protein precipitation plate resting on top of a 0.700 mL 96-well LoBind polypropylene plate. Double blank and carryover sample wells received 75 μL of acetonitrile:formic acid (1000:1, v:v) without internal standard. A 25 μL volume of each matrix sample was added to the plate wells containing internal standard. Fortified samples were vortexed at 700 rpm for 1 minute and centrifuged at 3000 rpm for 2 minutes at 4° C. The protein precipitation plate was discarded. A 50 μL volume of mobile phase A (acetonitrile:water:200 mM ammonium formate (90:5:5, v:v:v)) was added to the 96-well polypropylene collection plate which was covered with a silicone cap mat. Final samples were vortexed at 700 rpm for 2 minutes and analysis was accomplished by injecting a 2 μL sample onto an LC-MS/MS system. […]

[4] = tested on: HCT116 HER2 negative colorectal flank tumors; assay: Efficacy in a HCT116 colorectal xenograft model (Example E); type: in vivo, nude mice; details: IP QDx2
Description: Mice were administered intraperitoneal (IP) doses of vehicle, 0.25 mg/kg MMAE or 40 mg/kg Compound 1 (equivalent 7 mg/kg unconjugated MMAE).

Structure (SMILES) | efficacy (mean tumor volume) [1] | IC50 [2] [nM] | distribution of unconjugated MMAE to tumor, muscle and bone marrow [3] | animals removed from the study by day ([4]; 0.25 mg/kg MMAE) [days] | change in body weight ([4]; 0.25 mg/kg MMAE or 40 mg/kg Compound 1 (7 mg/kg MMAE equivalent))
CC[C@H](C)[C@@H]([C@@H](CC(=O)N1CCC[C@H]1[C@H](OC)[C@@H](C)C(=O)N[C@H](C)[C@@H](O)c1ccccc1)OC)N(C)C(=O)[C@@H](NC(=O)[C@H](C(C)C)N(C)C(=O)OCc1ccc(NC(=O)O[C@H]2CCCC[C@@H]2SSC[C@H](NC(=O)[C@H](Cc2c[nH]c3ccccc23)NC(=O)[C@H](CC(C)C)NC(=O)[C@H](CC(C)C)NC(=O)[C@H](CC(=O)O)NC(=O)[C@H](CC(C)C)NC(=O)[C@H](CC(C)C)NC(=O)[C@H](CC(C)C)NC(=O)[C@@H](NC(=O)[C@H](CC(=O)O)NC(=O)[C@@H](NC(=O)[C@@H]2CCCN2C(=O)[C@H](Cc2ccccc2)NC(=O)[C@H](CC(C)C)NC(=O)[C@H](CC(C)C)NC(=O)[C@H](CC(=O)O)NC(=O)[C@H](CC(C)C)NC(=O)[C@H](Cc2ccc(O)cc2)NC(=O)[C@H](C)NC(=O)[C@H](CCCNC(=N)N)NC(=O)[C@H](Cc2c[nH]c3ccccc23)NC(=O)[C@@H]2CCCN2C(=O)[C@H](CC(N)=O)NC(=O)[C@H](CCC(N)=O)NC(=O)[C@H](CC(=O)O)NC(=O)[C@H](CC(=O)O)NC(=O)[C@H](C)N)[C@@H](C)O)[C@@H](C)O)C(=O)NCC(N)=O)cc1)C(C)C [Compound 5] | dose responsive efficacy |  |  |  | 
CC[C@H](C)[C@@H]([C@@H](CC(=O)N1CCC[C@H]1[C@H](OC)[C@@H](C)C(=O)N[C@H](C)[C@@H](O)c1ccccc1)OC)N(C)C(=O)[C@@H](NC(=O)[C@@H](NC)C(C)C)C(C)C [MMAE, monomethyl auristatin E] (H-[NMeV]V[Dil][Dolaproine]-X1) |  | 2.6 | indiscriminate distribution of MMAE across all tissues | ≤ 6 | rapid decline in body weight

— US20230416331A1, “PEPTIDE CONJUGATES OF PEPTIDIC TUBULIN INHIBITORS AS THERAPEUTICS” (priority 2021, published 2023)
